molecular target: IGF-1R (Homo sapiens (Human), UniProt P08069); experiment: Example B-1: IGF-1R Assay (PC3 cells, IGF1 stimulation, AlphaLISA); format: cell-based; conditions: 200 ng/mL IGF1 stimulation, read-out: Biological Activity against IGF-1R IC50
Outline: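 Readout is AlphaLISA signal from lysed PC3 cells, expressed as % inhibition versus vehicle and EC80 controls and banded by IC50. Before lysis, the cells were starved of serum for 2 h, exposed to 3× serially diluted compound for 2 h, and stimulated for 30 min with 200 ng/mL IGF1 (final).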

Sequence of IGF-1R (P08069 31-1367): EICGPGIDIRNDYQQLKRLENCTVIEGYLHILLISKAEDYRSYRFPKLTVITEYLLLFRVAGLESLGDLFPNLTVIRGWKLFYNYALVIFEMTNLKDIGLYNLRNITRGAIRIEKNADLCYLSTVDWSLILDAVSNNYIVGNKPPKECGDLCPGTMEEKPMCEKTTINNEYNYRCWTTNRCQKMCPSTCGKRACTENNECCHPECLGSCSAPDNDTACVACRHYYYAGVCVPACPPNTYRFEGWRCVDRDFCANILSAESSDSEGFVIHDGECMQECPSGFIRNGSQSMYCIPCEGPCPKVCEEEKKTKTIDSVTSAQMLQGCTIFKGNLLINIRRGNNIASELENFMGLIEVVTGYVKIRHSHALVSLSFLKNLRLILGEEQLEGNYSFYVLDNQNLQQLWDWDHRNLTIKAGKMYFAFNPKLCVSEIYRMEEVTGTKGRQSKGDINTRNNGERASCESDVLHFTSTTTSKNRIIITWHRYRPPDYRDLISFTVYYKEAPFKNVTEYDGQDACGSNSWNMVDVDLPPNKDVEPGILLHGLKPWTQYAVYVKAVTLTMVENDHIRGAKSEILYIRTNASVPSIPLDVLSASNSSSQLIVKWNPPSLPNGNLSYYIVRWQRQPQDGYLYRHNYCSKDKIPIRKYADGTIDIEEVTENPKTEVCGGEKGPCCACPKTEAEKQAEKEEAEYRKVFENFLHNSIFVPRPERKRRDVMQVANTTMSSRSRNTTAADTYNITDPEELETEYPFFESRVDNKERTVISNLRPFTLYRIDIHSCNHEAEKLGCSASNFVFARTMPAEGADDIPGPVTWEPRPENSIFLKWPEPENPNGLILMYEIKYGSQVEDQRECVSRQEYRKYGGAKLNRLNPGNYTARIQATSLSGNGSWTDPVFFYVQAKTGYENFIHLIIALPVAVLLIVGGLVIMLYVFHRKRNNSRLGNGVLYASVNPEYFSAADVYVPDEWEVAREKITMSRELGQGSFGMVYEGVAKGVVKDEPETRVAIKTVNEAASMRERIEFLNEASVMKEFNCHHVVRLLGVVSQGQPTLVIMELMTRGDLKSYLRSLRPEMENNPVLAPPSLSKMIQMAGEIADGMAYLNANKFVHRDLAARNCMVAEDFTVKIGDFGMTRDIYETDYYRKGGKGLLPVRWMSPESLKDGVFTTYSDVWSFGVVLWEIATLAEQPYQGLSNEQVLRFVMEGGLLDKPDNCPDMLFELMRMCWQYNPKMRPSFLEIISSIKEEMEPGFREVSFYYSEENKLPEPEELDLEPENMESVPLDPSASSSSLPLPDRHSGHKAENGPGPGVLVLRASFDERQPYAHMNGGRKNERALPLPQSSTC

`COc1cc(Nc2nccc(Nc3cnc4c(F)cc(F)cc4c3)n2)ccc1O[C@H]1C[C@@H](N(C)C)C1` [Compound 113, 4-(6,8-difluoro-3-quinolylamino)-2-{3-methoxy-4-[(1s,3s)-3-(dimethylamino)cyclobutoxy]phenylamino}pyrimidine] and `COc1cc(Nc2nccc(Nc3cnc4c(F)cc(Cl)cc4c3)n2)ccc1O[C@H]1C[C@@H](N(C)C)C1` [Compound 114, 4-(6-chloro-8-fluoro-3-quinolylamino)-2-{3-methoxy-4-[(1s,3s)-3-(dimethylamino)cyclobutoxy]phenylamino}pyrimidine] cannot be ordered by IC50: at most 500 nM for the first, at most 500 nM for the second.

`COc1cc(Nc2nccc(Nc3cc4ccc(F)c(F)c4[nH]c3=O)n2)ccc1O[C@H]1C[C@@H](N(C)C)C1` [Compound 117, 7,8-difluoro-3-(2-{3-methoxy-4-[(1s,3s)-3-(dimethylamino)cyclobutoxy]phenyl-amino}-4-pyrimidinylamino)-1,2-dihydro-2-quinolinone] and `COc1cc(Nc2nccc(Nc3cc4cccc(F)c4[nH]c3=O)n2)ccc1O[C@H]1C[C@@H](N(C)C)C1` [Compound 120, 8-fluoro-3-(2-{3-methoxy-4-[(1s,3s)-3-(dimethylamino)cyclobutoxy]phenyl-amino}-4-pyrimidinylamino)-1,2-dihydro-2-quinolinone] cannot be ordered by IC50: at most 500 nM for the first, at most 500 nM for the second.

`COc1cc(Nc2nccc(Nc3cnc4cc(F)cc(F)c4c3)n2)ccc1O[C@H]1C[C@@H](N(C)C)C1` [Compound 118, 4-(5,7-difluoro-3-quinolylamino)-2-{3-methoxy-4-[(1s,3s)-3-(dimethylamino)cyclobutoxy]phenylamino}pyrimidine] and `COc1cc(Nc2nccc(Nc3cnc4ccc(F)c(F)c4c3)n2)ccc1O[C@H]1C[C@@H](N(C)C)C1` [Compound 125, 4-(5,6-difluoro-3-quinolylamino)-2-{3-methoxy-4-[(1s,3s)-3-(dimethylamino)cyclobutoxy]phenylamino}pyrimidine] cannot be ordered by IC50: at most 500 nM for the first, at most 500 nM for the second.

`COc1cc(Nc2nccc(Nc3cc4cc(F)c(F)cc4[nH]c3=O)n2)ccc1O[C@H]1C[C@@H](N(C)C)C1` [Compound 119, 6,7-difluoro-3-(2-{3-methoxy-4-[(1s,3s)-3-(dimethylamino)cyclobutoxy]phenyl-amino}-4-pyrimidinylamino)-1,2-dihydro-2-quinolinone] and `COc1cc(Nc2nccc(Nc3cc4cc(F)ccc4[nH]c3=O)n2)ccc1O[C@H]1C[C@@H](N(C)C)C1` [Compound 121, 6-fluoro-3-(2-{3-methoxy-4-[(1s,3s)-3-(dimethylamino)cyclobutoxy]phenyl-amino}-4-pyrimidinylamino)-1,2-dihydro-2-quinolinone] cannot be ordered by IC50: at most 500 nM for the first, at most 500 nM for the second.

`COc1cc(Nc2nccc(Nc3cc4ccc(F)cc4[nH]c3=O)n2)ccc1O[C@H]1C[C@@H](N(C)C)C1` [Compound 122, 7-fluoro-3-(2-{3-methoxy-4-[(1s,3s)-3-(dimethylamino)cyclobutoxy]phenyl-amino}-4-pyrimidinylamino)-1,2-dihydro-2-quinolinone] and `COc1cc(Nc2nccc(Nc3cnc4ccc(OC(F)(F)F)cc4c3)n2)ccc1O[C@H]1C[C@@H](N(C)C)C1` [Compound 128, N2-(4-((1s,3s)-3-(dimethylamino)cyclobutoxy)-3-methoxyphenyl)-N4-(6-(trifluoromethoxy)quinolin-3-yl)pyrimidine-2,4-diamine] cannot be ordered by IC50: at most 500 nM for the first, at most 500 nM for the second.

`COc1cc(Nc2nccc(Nc3cnc4cc(F)c(F)cc4c3)n2)cnc1N1CC2CCC(C1)O2` [Compound 126, 4-(6,7-difluoro-3-quinolylamino)-2-{5-methoxy-6-(8-oxa-3-azabicyclo[3.2.1]oct-3-y1)-3-pyridylamino}pyrimidine] and `COc1cc(Nc2nccc(Nc3cnc4cc(F)c(F)cc4c3)n2)cnc1N1C[C@H]2C[C@@H]1CO2` [Compound 127, 2-(6-{(1R,4R)-2-oxa-5-azabicyclo[2.2.1]hept-5-yl}-5-methoxy-3-pyridylamino)-4-(6,7-difluoro-3-quinolylamino)pyrimidine] cannot be ordered by IC50: 500 to 2000 nM for the first, at most 500 nM for the second.

Reference: patent US20250171431A1, “HETEROCYCLIC INHIBITORS OF IGF-1R FOR TREATMENT OF DISEASE” (HORIZON THERAPEUTICS IRELAND DAC, priority 2023, published 2025)
